Data from publication PMC3914206.

Legend:
Assay type in all cases: binding
panel of 442 kinases [1] = biological target: T1, panel of 442 kinases (Homo sapiens, UniProt O15264); details: Compound Concentration 10 µM
T1 construct: purchased KINOMEscan
T1 sequence (O15264 1-365): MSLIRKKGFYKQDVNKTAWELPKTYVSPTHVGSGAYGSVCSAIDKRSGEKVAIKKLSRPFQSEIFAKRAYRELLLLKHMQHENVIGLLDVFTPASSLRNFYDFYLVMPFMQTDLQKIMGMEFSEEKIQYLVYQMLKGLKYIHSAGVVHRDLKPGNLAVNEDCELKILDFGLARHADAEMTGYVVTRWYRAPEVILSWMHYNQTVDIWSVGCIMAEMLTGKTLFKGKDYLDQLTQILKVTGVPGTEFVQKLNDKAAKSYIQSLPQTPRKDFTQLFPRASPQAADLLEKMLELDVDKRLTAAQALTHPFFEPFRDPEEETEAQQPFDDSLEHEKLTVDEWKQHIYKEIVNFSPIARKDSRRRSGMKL
Source text: (§1) We assessed the selectivity of members of this scaffold using the KINOMEscan methodology across a near comprehensive panel of 442 kinases [[18,27]].

panel of 442 kinases [2] = biological target: T2, panel of 442 kinases (Homo sapiens, UniProt Q09013); details: Compound Concentration 10 µM
T2 construct: purchased KINOMEscan
T2 sequence (Q09013 1-629): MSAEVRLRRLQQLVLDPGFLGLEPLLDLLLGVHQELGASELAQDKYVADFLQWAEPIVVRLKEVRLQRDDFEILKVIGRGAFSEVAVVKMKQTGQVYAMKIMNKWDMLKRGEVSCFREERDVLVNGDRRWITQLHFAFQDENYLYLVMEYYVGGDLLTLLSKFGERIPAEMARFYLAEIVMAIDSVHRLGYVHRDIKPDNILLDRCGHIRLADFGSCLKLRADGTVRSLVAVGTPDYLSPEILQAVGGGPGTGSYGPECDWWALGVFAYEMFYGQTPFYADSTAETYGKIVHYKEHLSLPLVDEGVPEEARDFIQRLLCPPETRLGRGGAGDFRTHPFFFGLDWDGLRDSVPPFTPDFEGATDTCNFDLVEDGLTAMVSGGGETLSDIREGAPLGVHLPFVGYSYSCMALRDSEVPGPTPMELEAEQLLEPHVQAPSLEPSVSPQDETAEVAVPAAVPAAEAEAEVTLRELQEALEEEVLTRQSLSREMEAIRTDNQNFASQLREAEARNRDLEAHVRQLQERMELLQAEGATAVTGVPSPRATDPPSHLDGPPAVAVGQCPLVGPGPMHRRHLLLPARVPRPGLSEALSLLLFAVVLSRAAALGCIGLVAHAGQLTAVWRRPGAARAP
Source text: as §1

panel of 442 kinases [3] = biological target: T3, panel of 442 kinases (Homo sapiens, UniProt Q9UKE5); details: kinase TNIK; compound concentration 10 µM
T3 construct: purchased KINOMEscan
T3 sequence (Q9UKE5 whole entry): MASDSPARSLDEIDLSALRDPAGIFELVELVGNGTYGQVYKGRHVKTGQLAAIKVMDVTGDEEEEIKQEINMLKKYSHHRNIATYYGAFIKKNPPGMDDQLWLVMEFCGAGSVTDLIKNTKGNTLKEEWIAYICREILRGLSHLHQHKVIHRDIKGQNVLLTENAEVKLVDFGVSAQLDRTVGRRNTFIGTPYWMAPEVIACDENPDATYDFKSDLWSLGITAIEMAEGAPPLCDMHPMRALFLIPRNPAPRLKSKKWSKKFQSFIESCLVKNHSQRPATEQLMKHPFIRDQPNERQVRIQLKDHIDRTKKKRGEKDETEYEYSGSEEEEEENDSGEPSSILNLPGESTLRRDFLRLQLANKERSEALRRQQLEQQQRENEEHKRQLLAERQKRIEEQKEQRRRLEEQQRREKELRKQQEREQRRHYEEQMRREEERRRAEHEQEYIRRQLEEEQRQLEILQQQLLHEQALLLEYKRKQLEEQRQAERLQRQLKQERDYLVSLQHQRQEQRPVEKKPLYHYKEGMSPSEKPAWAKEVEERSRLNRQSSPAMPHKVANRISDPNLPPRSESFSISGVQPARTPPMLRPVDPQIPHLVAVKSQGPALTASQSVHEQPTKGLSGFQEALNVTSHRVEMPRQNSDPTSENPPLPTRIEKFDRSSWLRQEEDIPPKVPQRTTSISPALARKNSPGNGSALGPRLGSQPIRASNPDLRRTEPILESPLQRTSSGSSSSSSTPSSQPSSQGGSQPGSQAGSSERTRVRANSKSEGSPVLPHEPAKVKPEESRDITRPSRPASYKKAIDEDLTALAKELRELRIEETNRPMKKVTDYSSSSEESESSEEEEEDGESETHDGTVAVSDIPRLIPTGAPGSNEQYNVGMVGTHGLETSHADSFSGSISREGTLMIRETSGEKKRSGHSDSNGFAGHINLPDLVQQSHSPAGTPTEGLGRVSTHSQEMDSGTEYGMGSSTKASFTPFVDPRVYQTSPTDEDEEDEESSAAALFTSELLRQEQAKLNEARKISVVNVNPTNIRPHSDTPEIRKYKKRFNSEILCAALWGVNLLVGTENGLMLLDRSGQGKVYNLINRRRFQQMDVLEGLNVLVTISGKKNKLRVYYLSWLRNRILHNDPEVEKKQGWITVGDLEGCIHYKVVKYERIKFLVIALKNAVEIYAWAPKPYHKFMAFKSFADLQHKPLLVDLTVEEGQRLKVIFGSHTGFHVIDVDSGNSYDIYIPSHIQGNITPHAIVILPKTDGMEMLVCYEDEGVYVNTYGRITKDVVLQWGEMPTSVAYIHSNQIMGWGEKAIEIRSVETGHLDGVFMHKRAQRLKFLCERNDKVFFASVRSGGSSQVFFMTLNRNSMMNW
Source text: as §1

SMILES	KINOMEscan: p38-delta (panel of 442 kinases [1])	KINOMEscan: DMPK (panel of 442 kinases [2])	% Ctrl, TNIK (panel of 442 kinases [3])
COc1cc(C(=O)N2CCC(N3CCN(C)CC3)CC2)ccc1Nc1ncc2c(n1)N(C)c1ccccc1C(=O)N2C [15 (LRRK2-IN-1)]	72	100	100 % Ctrl
CCOc1cc(C(=O)N2CCC(N3CCN(C)CC3)CC2)ccc1Nc1ncc2c(n1)N(C1CCCC1)c1ccccc1C(=O)N2C [Compound 26]	100	100	94 % Ctrl
COc1cc(C(=O)N2CCC(N3CCN(C)CC3)CC2)ccc1Nc1ncc2c(n1)N1CCc3cccc(c31)C(=O)N2C [Compound 24]		85	56 % Ctrl
COc1cc(C(=O)N2CCC(N3CCN(C)CC3)CC2)ccc1Nc1ncc2c(n1)N(C1CCCC1)c1ccccc1C(=O)N2C [Compound 25, 11-cyclopentyl-2-((2-methoxy-4-(4-(4-methylpiperazin-1-yl)piperidine-1-carbonyl)phenyl)amino)-5-methyl-5H-benzo[e]pyrimido[5,4-b][1,4]diazepin-6(11H)-one]	100	96	100 % Ctrl
